Laboratory results from patent US20230391772A1, “METHODS AND COMPOSITIONS FOR TARGETED PROTEIN DEGRADATION” (Ranok Therapeutics (Hangzhou) Co. Ltd., priority 2020, published 2023).

Assays:
KRAS(G12C) [1] = target: T1, KRAS(G12C) (Homo sapiens, UniProt P01116, G12C); test: KRAS(G12C)/SOS1 homogeneous time-resolved fluorescence (HTRF) assay; parameters: purchased Cisbio 63ADK000CB16PEG; conditions: absence of GTP, 4° C. for 3 hr, read-out: KRAS (G12C) binding
In short: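 Three-hour incubation at 4 °C of 3-fold compound dilutions (lowest 1.02 nM) with KRAS(G12C), SOS1 and detection reagents, GTP absent. Disruption of the KRAS(G12C)/SOS1 complex detected by time-resolved fluorescence.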

HSP90a protein = target: T2, HSP90a protein (Homo sapiens, UniProt P07900); test: HSP90α-binding fluorescent polarization (FP) assay, BODIPY-labeled RNK04010 probe; conditions: FP competition with RNK04010 (BODIPY-labeled), 5 nM, 300 min at 25° C.
T2 construct: purchased BPS Bioscience 50298
In short: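 Compound dilutions (20 μM to 5.2 nM, 2.5-fold) are combined with 5 nM final labeled probe, and HSP90a N-terminal protein is added last. Plates are shaken briefly and held at 25° C for 120 min (FITC-geldanamycin) or 300 min (BODIPY-RNK04010), then FP is measured.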

KRAS(G12C) [2] = target: T1, KRAS(G12C); test: KRAS(G12C) Western blot protein degradation assay in LU65A cells; format: cell-based; parameters: LU65A human lung cancer cell line, which expresses KRAS(G12C); host or cells: LU65A; conditions: 6 hr
In short: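 KRAS levels read by fluorescent Western blot (β-actin as reference) on BCA-normalized lysates. Exposure to a compound concentration range at 37 °C lasted 6 hr in LU65A and 48 hr in MIA PaCa-2; DC50 taken as half-maximal degradation concentration.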

[3] = test system: MIA PaCa-2 human pancreatic carcinoma; test: MIA PaCa-2 CCK-8 proliferation assay; format: cell-based; conditions: Homo sapiens, MIA PaCa-2, 72 h, MIA PaCa-2 cells
In short: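 Three KRAS(G12C) lines are used, MIA PaCa-2 at two mutant copies and the NSCLC lines NCI-H358 and NCI-H23 at one. Each compound is titrated 3-fold from 20 μM to 1.02 nM, and proliferation is scored by CCK-8.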

T1 sequence (P01116 1-188 isoform P01116-2 G12C): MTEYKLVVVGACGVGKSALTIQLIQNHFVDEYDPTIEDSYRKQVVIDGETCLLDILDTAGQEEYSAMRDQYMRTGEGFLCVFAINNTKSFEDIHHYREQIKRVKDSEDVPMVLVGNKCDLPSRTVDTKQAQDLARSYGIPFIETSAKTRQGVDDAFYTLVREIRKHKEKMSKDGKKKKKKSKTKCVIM

IC50 (KRAS(G12C) [1]) [nM]	IC50 (HSP90a protein) [nM]	DC50 (KRAS(G12C) [2]) [nM]	EC50 [3] [nM]	SMILES
< 100	< 100	> 1000	100 to 1000	C=CC(=O)N1CCN(c2nc(OC[C@@H]3C[C@H](N4CCC(C(=O)N5CCN(Cc6ccc(-n7c(C(=O)NCC(F)(F)F)nnc7-c7cc(C)c(O)cc7O)cc6)CC5)CC4)CN3C)nc3c2CCN(c2cccc4cccc(Cl)c24)C3)C[C@@H]1CC#N [Compound 336, 4-{4-[(4-{1-[(3S,5S)-5-({[7-(8-chloronaphthalen-1-yl)-4-[(3S)-3-(cyanomethyl)-4-(prop-2-enoyl)piperazin-1-yl]-5H,6H,8H-pyrido[3,4-d]pyrimidin-2-yl]oxy}methyl)-1-methylpyrrolidin-3-yl]piperidine-4-carbonyl}piperazin-1-yl)methyl]phenyl}-5-(2,4-dihydroxy-5-methylphenyl)-N-(2,2,2-trifluoroethyl)-1,2,4-triazole-3-carbox-amide]
< 100	< 100	100 to 1000	100 to 1000	C=CC(=O)N1CCN(c2nc(OCCN3CCN(C(=O)C4CCN(Cc5ccc(-n6c(C(N)=O)nnc6-c6cc(C(C)C)c(O)cc6O)cc5)CC4)CC3)nc3c2CCN(c2cccc4cccc(Cl)c24)C3)C[C@@H]1CC#N [Compound 193, (S)-4-(4-((4-(4-(2-((4-(4-acryloyl-3-(cyanomethyl)piperazin-1-yl)-7-(8-chloronaphthalen-1-yl)-5,6,7,8-tetrahydropyrido[3,4-d]pyrimidin-2-yl)oxy)ethyl)piperazine-1-carbonyl)piperidin-1-yl)methyl)phenyl)-5-(2,4-dihydroxy-5-isopropylphenyl)-4H-1,2,4-triazole-3-carboxamide]
< 100	< 100	100 to 1000	100 to 1000	C=CC(=O)N1CCN(c2nc(OC[C@@H]3CC[C@H](CN4CCN(C(=O)C5CCN(Cc6ccc(-n7c(O)nnc7-c7cc(C)c(O)cc7O)cc6)CC5)CC4)N3C)nc3c2CCN(c2cccc4cccc(Cl)c24)C3)C[C@@H]1CC#N [Compound 319, 2-[(2S)-4-[7-(8-chloronaphthalen-1-yl)-2-{[(2S,5R)-5-({4-[1-({4-[3-(2,4-dihydroxy-5-methylphenyl)-5-hydroxy-1,2,4-triazol-4-yl]phenyl}methyl)piperidine-4-carbonyl]piperazin-1-yl}methyl)-1-methylpyrrolidin-2-yl]methoxy}-5H,6H,8H-pyrido [3,4-d]pyrimidin-4-yl]-1-(prop-2-enoyl)piperazin-2-yl]acetonitrile]
< 100	< 100	> 1000	100 to 1000	C=CC(=O)N1CCN(c2nc(OC[C@@H]3C[C@H](C(=O)N4CC5(CCN(Cc6ccc(-n7c(O)nnc7-c7cc(C(C)C)c(O)cc7O)cc6)CC5)C4)CN3C)nc3c2CCN(c2cccc4cccc(Cl)c24)C3)C[C@@H]1CC#N [Compound 230, 2-[(2S)-4-[7-(8-chloronaphthalen-1-yl)-2-{[(2S,4S)-4-[7-({4-[3-(2,4-dihydroxy-5-isopropylphenyl)-5-hydroxy-1,2,4-triazol-4-yl]phenyl}methyl)-2,7-diazaspiro[3.5]nonane-2-carbonyl]-1-methylpyrrolidin-2-yl]methoxy}-5H,6H,8H-pyrido[3,4-d]pyrimidin-4-yl]-1-(prop-2-enoyl)piperazin-2-yl]acetonitrile]
100 to 1000	< 100	> 1000	100 to 1000	C=CC(=O)N1CCN(c2nc(OCC3CN(C(=O)C4CCN(Cc5ccc(-n6c(C(=O)NCC(F)(F)F)nnc6-c6cc(C(C)C)c(O)cc6O)cc5)CC4)C3)nc3c2CCN(c2cccc4cccc(Cl)c24)C3)C[C@@H]1CC#N [Compound 220, (S)-4-(4-((4-(3-(((4-(4-acryloyl-3-(cyanomethyl)piperazin-1-yl)-7-(8-chloronaphthalen-1-yl)-5,6,7,8-tetrahydropyrido[3,4-d]pyrimidin-2-yl)oxy)methyl)azetidine-1-carbonyl)piperidin-1-yl)methyl)phenyl)-5-(2,4-dihydroxy-5-isopropylphenyl)-N-(2,2,2-trifluoroethyl)-4H-1,2,4-triazole-3-carboxamide]
< 100	< 100	> 1000	> 1000	C=CC(=O)N1CCN(c2nc(OC[C@@H]3C[C@H](N4CCC(C(=O)N5CCN(Cc6ccc(-n7c(O)nnc7-c7cc(CC)c(O)cc7O)cc6)CC5)CC4)CN3C)nc3c2CCN(c2cccc4cccc(Cl)c24)C3)C[C@@H]1CC#N [Compound 233, 2-[(2S)-4-[7-(8-chloronaphthalen-1-yl)-2-{[(2S,4S)-4-{4-[4-({4-[3-(5-ethyl-2,4-dihydroxyphenyl)-5-hydroxy-1,2,4-triazol-4-yl]phenyl}methyl)piperazine-1-carbonyl]piperidin-1-yl}-1-methylpyrrolidin-2-yl]methoxy}-5H,6H,8H-pyrido[3,4-d]pyrimidin-4-yl]-1-(prop-2-enoyl)piperazin-2-yl]acetonitrile]
< 100	< 100	100 to 1000	100 to 1000	C=CC(=O)N1CCN(c2nc(OC[C@@H]3C[C@H](N4CCC(C(=O)N5CC6(CCN(Cc7ccc(-n8c(O)nnc8-c8cc(C(C)C)c(O)cc8O)cc7)CC6)C5)CC4)CN3C)nc3c2CCN(c2cccc4cccc(Cl)c24)C3)C[C@@H]1CC#N [Compound 348, 2-[(2S)-4-[7-(8-chloronaphthalen-1-yl)-2-{[(2S,4S)-4-{4-[7-({4-[3-(2,4-dihydroxy-5-isopropylphenyl)-5-hydroxy-1,2,4-triazol-4-yl]phenyl}methyl)-2,7-diazaspiro [3.5]nonane-2-carbonyl]piperidin-1-yl}-1-methylpyrrolidin-2-yl]methoxy}-5H,6-H,8H-pyrido[3,4-d]pyrimidin-4-yl]-1-(prop-2-enoyl)piperazin-2-yl]acetonitrile]
100 to 1000	< 100	> 1000	100 to 1000	C=CC(=O)N1CCN(c2nc(OCCN3CCN(C(=O)C4CCN(Cc5ccc(-n6c(C(=O)NCC(F)(F)F)nnc6-c6cc(C(C)C)c(O)cc6O)cc5)CC4)CC3)nc3c2CCN(c2cccc4cccc(Cl)c24)C3)C[C@@H]1CC#N [Compound 206, (S)-4-(4-((4-(4-(2-((4-(4-acryloyl-3-(cyanomethyl)piperazin-1-yl)-7-(8-chloronaphthalen-1-yl)-5,6,7,8-tetrahydropyrido[3,4-d]pyrimidin-2-yl)oxy)ethyl)piperazine-1-carbonyl)piperidin-1-yl)methyl)phenyl)-5-(2,4-dihydroxy-5-isopropylphenyl)-N-(2,2,2-trifluoroethyl)-4H-1,2,4-triazole-3-carboxamide, trifluoroacetic acid]
> 1000	< 100	> 1000	100 to 1000	C=C(F)C(=O)N1CCN(c2nc(OCCN3CCN(C(=O)C4CCN(Cc5ccc(-n6c(O)nnc6-c6cc(C(C)C)c(O)cc6O)cc5)CC4)CC3)nc3c2CCN(c2cccc4cccc(Cl)c24)C3)C[C@@H]1CC#N [Compound 224, (S)-2-(4-(7-(8-chloronaphthalen-1-yl)-2-(2-(4-(1-(4-(3-(2,4-dihydroxy-5-isopropylphenyl)-5-hydroxy-4H-1,2,4-triazol-4-yl)benzyl)piperidine-4-carbonyl)piperazin-1-yl)ethoxy)-5,6,7,8-tetrahydropyrido[3,4-d]pyrimidin-4-yl)-1-(2-fluoroacryloyl)piperazin-2-yl)acetonitrile]
< 100	< 100	> 1000	100 to 1000	C=CC(=O)N1CCN(c2nc(OC[C@@H]3C[C@H](N4CCC5(CCN(Cc6ccc(-n7c(O)nnc7-c7cc(C)c(O)cc7O)cc6)CC5)CC4)CN3C)nc3c2CCN(c2cccc4cccc(Cl)c24)C3)C[C@@H]1CC#N [Compound 228, 2-[(2S)-4-[7-(8-chloronaphthalen-1-yl)-2-{[(2S,4S)-4-[9-({4-[3-(2,4-Dihydroxy-5-methylphenyl)-5-hydroxy-1,2,4-triazol-4-yl]phenyl}methyl)-3,9-diazaspiro[5.5]undecan-3-yl]-1-methylpyrrolidin-2-yl]methoxy}-5H,6H,8H-pyrido[3,4-d]pyrimidin-4-yl]-1-(prop-2-enoyl)piperazin-2-yl]acetonitrile]
< 100	< 100	> 1000	100 to 1000	C=CC(=O)N1CCN(c2nc(OC[C@@H]3CC[C@H](CN4CCN(Cc5ccc(-n6c(O)nnc6-c6cc(C)c(O)cc6O)cc5)CC4)N3C)nc3c2CCN(c2cccc4cccc(Cl)c24)C3)C[C@@H]1CC#N [Compound 227, 2-[(2S)-4-[7-(8-chloronaphthalen-1-yl)-2-{[(2S,5R)-5-{[4-({4-[3-(2,4-dihydroxy-5-methylphenyl)-5-hydroxy-1,2,4-triazol-4-yl]phenyl}methyl)piperazin-1-yl]methyl}-1-methylpyrrolidin-2-yl]methoxy}-5H,6H,8H-pyrido[3,4-d]pyrimidin-4-yl]-1-(prop-2-enoyl)piperazin-2-yl]acetonitrile]
